According to patent US20060057073A1, “Wet granulation process” (Pari GmbH, priority 2002, published 2006):

Legend:
[1] = Particle size by laser diffraction (Malvern MasterSizer 2000, dry dispersing); type: physicochemical; conditions: mean diameter of the volume distribution; mean of three measurements
[2] = Bulk density according to Ph. Eur.; type: physicochemical
[3] = base; cited from earlier work
[4] = drug substance as free acid; cited from earlier work

Aqueous solubility (Aqueous solubility) | Aqueous solubility (in words) (Aqueous solubility; in water) | Compound | D50% (laser diffraction) [1] | Bulk density [2] | pK [3] | intrinsic pH [4]
 |  | COc1ccc(Cc2nccc3cc(OC)c(OC)cc23)cc1OC [papaverine] | 28.5 μm | 0.41 g/mL | 8.07 | 
<0.1% | nearly insoluble | C[C@H]1[C@H](NC(=O)/C(=N\OC(C)(C)C(=O)O)c2csc(N)n2)C(=O)N1S(=O)(=O)O [Aztreonam] |  | 0.49 g/mL |  | about 1
